{"source": "patent US20090142285A1", "about": "“COSMETIC COMPOSITION COMPRISING ASCORBIC ACID 2-GLUCOSIDE AND ERGOTHIONEINE” (LVMH RECHERCHE, priority 2007, published 2009)", "key": {"[1]": {"system": "glycosylase type DNA repair enzymes", "assay": "OLISA biochip: excision of modified DNA bases by nuclear extracts of treated fibroblasts, donor (FHN52)", "assay_type": "cell-based, human", "conditions": "for digestion activity (elimination of modified DNA bases formed as a result of oxidative stress): overall conclusion", "description": "(§1) Fibroblasts were obtained from a breast sample from a person and from photo-protected skin of a person.\n(§2) Fibroblasts from each of the donors, […] (FHN52) and […] (FHN 1C), were cultured and treated in the exponential growth phase.\n(§3) Fibroblasts were treated with ergothioneine (AGI Dermatics, Newport, N.Y., USA) at a non-cytotoxic concentration of 4 mM for 24 hours.\n(§4) Treatment of fibroblasts with ascorbic acid 2-glucoside (Siber Hegner, Miribel, France) was carried out at a non-cytotoxic concentration of 50 μM of […] for 24 hours.\n(§5) Nuclear extracts were prepared in order to obtain protein solutions containing the repair enzymes of interest.\n(§6) Extracts were used at a final concentration of 10 μg/ml.\n(§7) OLISA technology (Bonnet-Duquennoy et al., Eur. J. Dermatol., 16, 2, 136-140 2006) was used to measure the excision of nucleic bases modified by glycosylase type DNA repair enzymes.\n(§8) The principle (FIG. 1) is described in the publication entitled: “An oligonucleotide micro-array for the monitoring of repair enzyme activity toward different DNA damage”, Sauvaigo et al., Annal. Biochem. (2004); 333: 182-192.\n(§9) Labelled oligonucleotide probes immobilised on the support generate synthetic double strand DNA containing in their base sequence, the altered base whose repair activity by cellular enzymes is being studied.\n(§10) The probes were determined in order to study enzyme repair typical lesions resulting from exposure to oxidative stress (FIG. 2).\n(§11) An OLISA format chip (96-well plate; bioMérieux, Grenoble, France) with 17 spots was functionalised by oligonucleotides containing the various lesions of interest (LAN synthesis, CEA, Grenoble, France).\n(§12) Functionalised wells were incubated at 30° C. in the presence of the extract of interest.\n(§13) The duration of digestion chosen is 45 minutes for the experiments. Extracts were deposited in four wells.\n(§14) Thus for each lesion, the percentage of lesions remaining after the extract activity is determined by calculating the ratio of “extract” well signals with respect to control wells which represent 100% lesions (calculation carried out using the mean of the 8 values obtained).\n(§15) Similarly, to determine the effect of each of the 2 active ingredients on specific digestion of extracts, data obtained for each of the lesions were normalised by data obtained with the control oligonucleotide normalised by the control."}, "[2]": {"system": "glycosylase type DNA repair enzymes", "assay": "OLISA biochip: excision of modified DNA bases by nuclear extracts of treated fibroblasts, donor (FHN 1C)", "assay_type": "cell-based, human", "description": "as §1, §2, §3, §4, §5, §6, §7, §8, §9, §10, §11, §12, §13, §14, §15"}, "[3]": {"system": "non-specific digestive activity (nuclease) of cell extracts", "assay": "OLISA biochip: non-specific digestion of control oligonucleotide (no lesion) by extracts of treated fibroblasts", "assay_type": "cell-based, human", "conditions": "immediately after treatment, 2 donors", "description": "as §2, §3, §4, §5, §7\nFor this study, 2 spots per lesion of interest or control oligonucleotide (without lesion) and 3 spots used to direct the readings were used.\nas §12, §13\nIn order to determine the effect of ergothioneine, on the one hand, and of ascorbic acid 2-glucoside, on the other, on non-specific digestion of extracts, data obtained with the control oligonucleotide normalised by the control were used.\nIn the same way, an analysis was carried out for each of the 2 donors tested. […]"}, "keratinocytes": {"system": "keratinocytes", "conditions": "cited from earlier work"}, "[4]": {"system": "mouse skin cells placed in culture", "conditions": "cited from earlier work"}, "Fibroblasts": {"system": "Fibroblasts", "assay": "Cytotoxicity of the treatment concentration on fibroblasts", "assay_type": "cell-based, human", "conditions": "4 mM for 24 hours", "description": "as §3, §4"}, "human cell lines": {"system": "human cell lines", "conditions": "cited from earlier work"}, "[5]": {"conditions": "ascorbic acid 2-glucoside 50 μM, 24 hours after treatment, donor (FHN 52)"}, "[6]": {"conditions": "ascorbic acid 2-glucoside 50 μM, 24 hours after treatment"}, "[7]": {"conditions": "ergothioneine 4 mM 24 hours, rinsed, recultured without ergothioneine a further 24 hours, donor (FHN 52)"}, "[8]": {"conditions": "ergothioneine 4 mM 24 hours, donor (FHN 52), immediately after treatment"}, "[9]": {"conditions": "ergothioneine 4 mM 24 hours, immediately after treatment"}}, "data": [{"compound": "O=C1O[C@H]([C@@H](O)CO)C(O)=C1O[C@H]1O[C@H](CO)[C@@H](O)[C@H](O)[C@H]1O", "note": "[ascorbic acid 2-glucoside, 2-O-α-D-Glucopyranosyl L-ascorbic acid]", "values": [{"measurement": "residual percentage of 8-oxo-dG lesion", "setting": "[1]; [5]", "result": "decreases significantly"}, {"measurement": "residual percentage of formylamine lesion", "setting": "[1]; [5]", "result": "decreases significantly"}, {"measurement": "residual percentage of inosine lesion", "setting": "[1]; [5]", "result": "decreases significantly"}, {"measurement": "residual percentage of uracil lesion", "setting": "[1]; [5]", "result": "decreases significantly"}, {"measurement": "digestion activity (elimination of modified DNA bases formed as a result of oxidative stress)", "setting": "[1]; ascorbic acid 2-glucoside 50 μM, fibroblast extracts of donor", "result": "significantly increases"}, {"measurement": "residual percentage of 8 oxodG lesion", "setting": "[2]; [6]", "result": "decreases significantly"}, {"measurement": "residual percentage of formylamine lesion", "setting": "[2]; [6]", "result": "decreases significantly"}, {"measurement": "residual percentage of inosine lesion", "setting": "[2]; [6]", "result": "decreases significantly"}, {"measurement": "residual percentage of uracil lesion", "setting": "[2]; [6]", "result": "decreases significantly"}, {"measurement": "effect on the control oligonucleotide (non-specific digestion)", "setting": "[3]; ascorbic acid 2-glucoside 50 μM for 24 hours", "result": "did not have a significant effect"}, {"measurement": "protection against cytotoxicity caused by UVB", "setting": "keratinocytes", "result": "effective agent in protecting keratinocytes"}, {"measurement": "cell DNA fragmentation after damage caused by UVA or UVB", "setting": "[4]", "result": "reduction in the cell DNA fragmentation"}]}, {"compound": "C[N+](C)(C)[C@@H](Cc1c[nH]c(=S)[nH]1)C(=O)[O-]", "note": "[ergothioneine]", "values": [{"measurement": "residual percentage of 8-oxo-dG lesion", "setting": "[1]; [7]", "result": "decreases significantly"}, {"measurement": "residual percentage of HmdU lesion", "setting": "[1]; [7]", "result": "decreases significantly"}, {"measurement": "residual percentage of ethenoda lesion", "setting": "[1]; [7]", "result": "decreases significantly"}, {"measurement": "residual percentage of formylamine lesion", "setting": "[1]; [7]", "result": "decreases significantly"}, {"measurement": "residual percentage of inosine lesion", "setting": "[1]; [7]", "result": "decreases significantly"}, {"measurement": "residual percentage of formylamine lesion", "setting": "[1]; [8]", "result": "decreases significantly"}, {"measurement": "residual percentage of inosine lesion", "setting": "[1]; [8]", "result": "decreases significantly"}, {"measurement": "residual percentage of uracil lesion", "setting": "[1]; [8]", "result": "decreases significantly"}, {"measurement": "residual percentage of 8 oxodG lesion", "setting": "[1]; ergothioneine 4 mM 24 hours, donor (FHN 52), immediately after treatment, normalised to control oligonucleotide", "result": "decreases significantly"}, {"measurement": "digestion activity (elimination of modified DNA bases formed as a result of oxidative stress)", "setting": "[1]; ergothioneine 4 mM, fibroblast extracts", "result": "significantly increases"}, {"measurement": "residual percentage of formylamine lesion", "setting": "[2]; [9]", "result": "decreases significantly"}, {"measurement": "residual percentage of uracil lesion", "setting": "[2]; [9]", "result": "decreases significantly"}, {"measurement": "effect on the control oligonucleotide (non-specific digestion)", "setting": "[3]; ergothioneine 4 mM for 24 hours", "result": "no significant effect"}, {"measurement": "cytotoxicity at treatment concentration", "setting": "Fibroblasts", "result": "non-cytotoxic"}, {"measurement": "DNA oxidation caused by peroxinitrites", "setting": "human cell lines", "result": "inhibits"}, {"measurement": "cell death triggered by hydrogen peroxide", "setting": "human cell lines", "result": "inhibits"}]}]}
